Read-outs that look alike come from different tables or passages of the source.
Legend:
human recombinant HDAC6 = biological target: T1, human recombinant HDAC6 (Homo sapiens, UniProt Q9UBN7); assay: HDAC6 enzyme activity inhibition (HDAC Fluorimetric Drug Discovery Kit); format: biochemical
T1 construct: purchased Calbiochem Inc. 382180
T1 sequence (Q9UBN7 1-1215): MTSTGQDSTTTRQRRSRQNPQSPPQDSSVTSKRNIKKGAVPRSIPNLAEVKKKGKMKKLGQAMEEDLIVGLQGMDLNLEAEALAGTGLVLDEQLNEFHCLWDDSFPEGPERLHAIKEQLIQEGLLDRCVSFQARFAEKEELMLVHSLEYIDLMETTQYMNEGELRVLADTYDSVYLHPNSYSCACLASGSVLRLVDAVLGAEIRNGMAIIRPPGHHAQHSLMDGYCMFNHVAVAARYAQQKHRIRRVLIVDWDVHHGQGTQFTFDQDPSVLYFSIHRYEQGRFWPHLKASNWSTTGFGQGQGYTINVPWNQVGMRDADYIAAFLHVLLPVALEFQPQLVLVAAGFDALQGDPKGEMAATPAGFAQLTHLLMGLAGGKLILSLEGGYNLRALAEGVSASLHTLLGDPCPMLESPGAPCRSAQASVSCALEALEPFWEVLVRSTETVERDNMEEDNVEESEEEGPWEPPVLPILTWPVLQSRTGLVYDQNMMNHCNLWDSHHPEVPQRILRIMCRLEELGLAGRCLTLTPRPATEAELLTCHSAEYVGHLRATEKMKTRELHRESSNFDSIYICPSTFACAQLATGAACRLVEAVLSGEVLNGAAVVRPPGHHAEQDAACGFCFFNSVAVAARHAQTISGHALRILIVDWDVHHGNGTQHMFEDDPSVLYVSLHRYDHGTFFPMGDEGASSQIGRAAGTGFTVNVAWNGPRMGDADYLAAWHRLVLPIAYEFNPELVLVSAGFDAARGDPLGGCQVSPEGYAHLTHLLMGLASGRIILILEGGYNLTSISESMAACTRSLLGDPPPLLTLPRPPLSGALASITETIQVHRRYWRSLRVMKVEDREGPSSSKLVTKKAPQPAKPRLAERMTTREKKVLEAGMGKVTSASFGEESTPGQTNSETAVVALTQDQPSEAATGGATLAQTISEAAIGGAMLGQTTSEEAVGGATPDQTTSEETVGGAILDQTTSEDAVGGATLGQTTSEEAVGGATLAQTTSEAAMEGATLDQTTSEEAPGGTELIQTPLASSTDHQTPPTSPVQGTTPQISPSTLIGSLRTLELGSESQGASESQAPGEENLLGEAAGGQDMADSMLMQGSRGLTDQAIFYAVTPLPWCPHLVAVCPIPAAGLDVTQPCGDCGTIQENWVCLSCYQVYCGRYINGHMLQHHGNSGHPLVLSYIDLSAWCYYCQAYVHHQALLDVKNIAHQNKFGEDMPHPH
How it was run: (§1)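 Compounds in 5-fold dilution series were incubated with […] enzyme and 10 μM substrate at 30° C for 60 minutes. Fluor de Lys Developer II was then added for 30 minutes to stop the reaction and develop the fluorescent signal.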

human recombinant HDAC1 = biological target: T2, human recombinant HDAC1 (Homo sapiens, UniProt Q13547); assay: HDAC1 enzyme activity inhibition (HDAC Fluorimetric Drug Discovery Kit); format: biochemical; details: read-out: HDAC1
T2 construct: purchased Enzo Life Science, Inc. BML-SE456
How it was run: as §1

[1] = system: hippocampal neurons from a Sprague-Dawley (SD) rat fetus; assay: Effect of HDAC6-specific inhibitor on axonal transport of mitochondria in amyloid-beta treated neurons; format: cell-based; details: transport velocity of mitochondria in neuronal axon after normalization; vehicle = 100%, amyloid beta treatment group = 0%; compound treatment for three hours
How it was run: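 Rat E17-18 hippocampal neurons exposed to amyloid-beta fragments […]; after 24 h (day 8 in vitro) compound added for 3 h, mitochondria stained with MitoTracker Red CMXRos. Confocal imaging every 1 s for 1 min gave per-mitochondrion velocity, normalized vehicle = 100%, amyloid-beta = 0%.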

[2] = human recombinant HDAC6, IC50 calculated with GraphPad Prism
[3] = human recombinant HDAC1, IC50 calculated with GraphPad Prism
[4] = human recombinant HDAC6, same protocol as HDAC1
[5] = human recombinant HDAC1, Fluor de Lys substrate, 30° C. 60 minutes

T2 sequence (Q13547 whole entry): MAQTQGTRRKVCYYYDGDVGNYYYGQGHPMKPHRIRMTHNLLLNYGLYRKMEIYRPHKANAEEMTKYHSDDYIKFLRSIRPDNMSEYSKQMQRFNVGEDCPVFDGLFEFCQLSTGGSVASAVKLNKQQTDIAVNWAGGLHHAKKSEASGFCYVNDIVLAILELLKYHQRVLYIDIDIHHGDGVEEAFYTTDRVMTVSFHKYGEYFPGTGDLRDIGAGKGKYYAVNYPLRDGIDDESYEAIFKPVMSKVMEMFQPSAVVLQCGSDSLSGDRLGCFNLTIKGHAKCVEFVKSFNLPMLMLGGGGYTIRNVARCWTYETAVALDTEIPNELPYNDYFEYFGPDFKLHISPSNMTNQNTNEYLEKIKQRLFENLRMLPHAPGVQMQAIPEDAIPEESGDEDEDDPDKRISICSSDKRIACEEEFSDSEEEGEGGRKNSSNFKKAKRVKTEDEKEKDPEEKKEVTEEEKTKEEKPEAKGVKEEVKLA

SMILES	HDAC6 selectivity (fold) (human recombinant HDAC6; HDAC1 IC50 / HDAC6 IC50)	IC50 (human recombinant HDAC6; [2]) [nM]	IC50 (human recombinant HDAC1; [3]) [nM]	Velocity distribution (%) [1]	HDAC6 selectivity (fold) (human recombinant HDAC6; HDAC6 over HDAC1)	IC50 (human recombinant HDAC6; [4]) [nM]	IC50 (human recombinant HDAC1; [5]) [nM]
CC(C)N1CCC(Nc2cccc(-c3cn(Cc4ccc(-c5nnc(C(F)F)o5)cc4F)nn3)c2F)CC1 [Compound 4432, N-(3-(1-(4-(5-(difluoromethyl)-1,3,4-oxadiazol-2-yl)-2-fluorobenzyl)-1H-1,2,3-triazol-4-yl)-2-fluorophenyl)-1-isopropylpiperidin-4-amine]	2427	20.6	> 50000	*** (***, >100%)	–	–	–
FC(F)c1nnc(-c2ccc(Cn3cc(-c4cccc5[nH]ncc45)nn3)nc2)o1 [Compound 4346, 2-(6-((4-(1H-indazol-4-yl)-1H-1,2,3-triazol-1-yl)methyl)pyridin-3-yl)-5-(difluoromethyl)-1,3,4-oxadiazole]	9090	5.5	> 50000	*** (***, >100%)	–	–	–
CN1CCC(Nc2cccc(-c3cn(Cc4ccc(-c5nnc(C(F)F)o5)cc4F)nn3)c2F)CC1 [Compound 4431, N-(3-(1-(4-(5-(difluoromethyl)-1,3,4-oxadiazol-2-yl)-2-fluorobenzyl)-1H-1,2,3-triazol-4-yl)-2-fluorophenyl)-1-methylpiperidin-4-amine]	2631	19	> 50000	*** (***, >100%)	–	–	–
Cc1cccc(-c2cn(Cc3ccc(-c4nnc(C(F)F)o4)cn3)nn2)c1 [Compound 3856, 2-(difluoromethyl)-5-(6-((4-(m-tolyl)-1H-1,2,3-triazol-1-yl)methyl)pyridin-3-yl)-1,3,4-oxadiazole]	1506	33.2	> 50000	*** (***, >100%)	–	–	–
CC1CCN(Cc2c[nH]c3cc(-c4cn(Cc5ccc(-c6nnc(C(F)F)o6)cn5)nn4)ccc23)CC1 [Compound 4111, 2-(difluoromethyl)-5-(6-((4-(3-((4-methylpiperidin-1-yl)methyl)-1H-indol-6-yl)-1H-1,2,3-triazol-1-yl)methyl)pyridin-3-yl)-1,3,4-oxadiazole]	4587	10.9	> 50000	** (**, 50%˜100%)	–	–	–
Fc1cc(-c2nnc(C(F)F)o2)ccc1Cn1cc(-c2ccc3c(c2)CN(C2CCC2)CC3)nn1 [Compound 4366, 2-(4-((4-(2-cyclobutyl-1,2,3,4-tetrahydroisoquinolin-7-yl)-1H-1,2,3-triazol-1-yl)methyl)-3-fluorophenyl)-5-(difluoromethyl)-1,3,4-oxadiazole]	1358	36.8	> 50000	*** (***, >100%)	–	–	–
CN1CCN(c2cccc(-c3cn(Cc4ccc(-c5nnc(C(F)F)o5)cc4)nn3)c2)CC1 [Compound 4336, 2-(difluoromethyl)-5-(4-((4-(3-(4-methylpiperazin-1-yl)phenyl)-1H-1,2,3-triazol-1-yl)methyl)phenyl)-1,3,4-oxadiazole]	1543	32.4	> 50000	*** (***, >100%)	–	–	–
COC(=O)Nc1cccc(-c2cn(Cc3ccc(-c4nnc(C(F)F)o4)cc3F)nn2)c1 [Compound 3776, Methyl (3-(1-(4-(5-(difluoromethyl)-1,3,4-oxadiazol-2-yl)-2-fluorobenzyl)-1H-1,2,3-triazol-4-yl)phenyl)carbamate]	1984	25.2	> 50000	*** (***, >100%)	–	–	–
Cn1ncc2c(-c3cn(Cc4ccc(-c5nnc(C(F)F)o5)cn4)nn3)cccc21 [Compound 3842, 2-(difluoromethyl)-5-(6-((4-(1-methyl-1H-indazol-4-yl)-1H-1,2,3-triazol-1-yl)methyl)pyridin-3-yl)-1,3,4-oxadiazole]	2032	24.6	> 50000	** (**, 50%˜100%)	–	–	–
Fc1cc(-c2nnc(C(F)F)o2)cnc1Cn1cc(-c2ccc(CN3CCCC3)cc2)nn1 [Compound 18058, 2-(difluoromethyl)-5-(5-fluoro-6-((4-(4-(pyrrolidin-1-ylmethyl)phenyl)-1H-1,2,3-triazol-1-yl)methyl)pyridin-3-yl)-1,3,4-oxadiazole]	–	–	–	*** (***, >100%)	2272	22	> 50000
FC(F)c1nnc(-c2ccc(Cn3cc(-c4ccc5c(CN6CCOCC6)c[nH]c5c4)nn3)nc2)o1 [Compound 3944, 4-((6-(1-((5-(5-(difluoromethyl)-1,3,4-oxadiazol-2-yl)pyridin-2-yl)methyl)-1H-1,2,3-triazol-4-yl)-1H-indol-3-yl)methyl)morpholine]	7462	6.7	> 50000	* (*, 0%˜50%)	–	–	–
Fc1cc(-c2nnc(C(F)F)o2)ccc1Cn1cc(-c2ccc(CN3CCC3)cn2)nn1 [Compound 17532, 2-(4-((4-(5-(azetidin-1-yl-methyl)pyridin-2-yl)-1H-1,2,3-triazol-1-yl)methyl)-3-fluorophenyl)5-(difluoromethyl)-1,3,4-oxadiazole]	–	–	–	*** (***, >100%)	2100	23.8	> 50000
FC(F)c1nnc(-c2ccc(Cn3cc(-c4ccc5cc[nH]c5c4)cn3)nc2)o1 [Compound 4208]	1479	33.8	> 50000	** (**, 50%˜100%)	–	–	–
FC(F)c1nnc(-c2ccc(Cn3cc(-c4cncc(Br)c4)nn3)nc2)o1 [Compound 4182, 2-(6-((4-(5-bromopyridin-3-yl)-1H-1,2,3-triazol-1-yl)methyl)pyridin-3-yl)-5-(difluoromethyl)-1,3,4-oxadiazole]	2252	22.2	> 50000	** (**, 50%˜100%)	–	–	–
FC(F)c1nnc(-c2ccc(Cn3cc(-c4cccs4)nn3)nc2)o1 [Compound 3902, 2-(difluoromethyl)-5-(6-((4-(thiophen-2-yl)-1H-1,2,3-triazol-1-yl)methyl)pyridin-3-yl)-1,3,4-oxadiazole]	2415	20.7	> 50000	*** (***, >100%)	–	–	–
CC1CCN(Cc2ccc(-c3cn(Cc4ncc(-c5nnc(C(F)F)o5)cc4F)nn3)cc2)CC1 [Compound 18307, 2-(difluoromethyl)-5-(5-fluoro-6-((4-(4-((4-methylpiperidin-1-yl)methyl)phenyl)-1H-1,2,3-triazol-1-yl)methyl)pyridin-3-yl)-1,3,4-oxadiazole]	–	–	–	*** (***, >100%)	1028	48.6	> 50000
FC(F)c1nnc(-c2ccc(Cn3cc(-c4cccc(N5CCOCC5)c4)nn3)nc2)o1 [Compound 3866, 4-(3-(1-((5-(5-(difluoromethyl)-1,3,4-oxadiazol-2-yl)pyridin-2-yl)methyl)-1H-1,2,3-triazol-4-yl)phenyl)morpholin]	2688	18.6	> 50000	** (**, 50%˜100%)	–	–	–

Source: patent US20230257372A1 (CHONG KUN DANG PHARMACEUTICAL CORP., priority 2020, published 2023)
